The term IC50 denotes the midpoint of a concentration-inhibition curve.

Where two headings read alike, the source gives them in different places. Bounds are passed on as bounds.

The record followed here is patent publication US8263596B2, “Kinase inhibitors and method of treating cancer” (University Health Network, priority 2010, dated 2012).

For one experiment, the target named is T1, human PLK4 (Homo sapiens, UniProt O00444).
T1 construct: amino terminal GST fusion of residues 1-391 of human PLK4; made in house; host or cells: E. coli
T1 sequence (O00444 1-391): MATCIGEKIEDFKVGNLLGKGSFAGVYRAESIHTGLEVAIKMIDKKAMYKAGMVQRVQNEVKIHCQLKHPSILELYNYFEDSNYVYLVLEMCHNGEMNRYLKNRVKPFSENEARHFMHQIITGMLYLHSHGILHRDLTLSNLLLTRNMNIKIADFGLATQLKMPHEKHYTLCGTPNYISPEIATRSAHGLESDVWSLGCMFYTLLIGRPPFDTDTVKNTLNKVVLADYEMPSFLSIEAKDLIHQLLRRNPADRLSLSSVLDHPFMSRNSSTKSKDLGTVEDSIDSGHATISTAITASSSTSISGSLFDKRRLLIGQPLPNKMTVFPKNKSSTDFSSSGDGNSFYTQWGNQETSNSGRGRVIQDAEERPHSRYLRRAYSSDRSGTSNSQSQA
As to the kind of experiment: PLK4 inhibition assay (indirect ELISA). The format is biochemical. A general note: An ELISA detects its analyte on a solid surface through an enzyme-linked reagent.

Another experiment concerns the target Aurora B (Homo sapiens, UniProt Q96GD4). As to the kind of experiment: Aurora B inhibition assay (Z-Lyte). The format is biochemical. Conditions: read-out: IC50 Ranges Aurora B.

Chain of Aurora B (Q96GD4 whole entry): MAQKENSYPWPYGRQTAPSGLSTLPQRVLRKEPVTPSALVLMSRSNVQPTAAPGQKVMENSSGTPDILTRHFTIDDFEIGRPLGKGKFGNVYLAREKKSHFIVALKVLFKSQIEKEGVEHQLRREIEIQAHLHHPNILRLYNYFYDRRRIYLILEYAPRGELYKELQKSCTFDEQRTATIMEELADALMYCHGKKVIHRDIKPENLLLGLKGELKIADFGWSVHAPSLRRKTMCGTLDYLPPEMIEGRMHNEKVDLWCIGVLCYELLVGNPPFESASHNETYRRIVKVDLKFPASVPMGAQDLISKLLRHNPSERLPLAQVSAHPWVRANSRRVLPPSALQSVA
Protocol for Aurora B: Aurora B inhibition was determined using the Z-Lyte assay kit from Invitrogen. […] The % inhibition values were determined according to the manufacturer's directions and IC50 values were obtained using a non-linear 4 point logistic curve fit (XLfit4, IDBS)
Protocol for human PLK4: PLK4 activity was measured using an indirect ELISA detection system. […] The colourimetric reaction was allowed to continue for 5 minutes, followed by addition of stop solution (0.5 N sulphuric acid), and quantified by detection at 450 nm with either a monochromatic or filter based plate reader (Molecular Devices M5 or Beckman DTX880, respectively).
Compounds were pre-incubated in the presence of enzyme for 15 minutes prior to addition of ATP and the activity remaining quantified using the above described activity assay. […] The IC50 value was determined using a non-linear 4 point logistic curve fit (XLfit4, IDBS) with the formula; (A+(B/(1+((x/C)^D)))), where A=background value, B=range, C=inflection point, D=curve fit parameter.

In the case of `O=C1Nc2ncc(Br)cc2[C@]12C[C@H]2c1ccc2cn[nH]c2c1` (racemic) [Example A12, (1R*,2S*)-5′-bromo-2-(1H-indazol-6-yl)spiro[cyclopropane-1,3′-pyrrolo[2,3-b]pyridin]-2′(1′H)-one], the IC50 on human PLK4 (read-out: IC50 Ranges PLK4) was 100 to 1000 nM.
For `COc1ccc2c(c1)[C@]1(C[C@@H]1c1ccc3c(-c4ccc(N5CCN(C)CC5)nc4)n[nH]c3c1)C(=O)N2` (relative stereo) [Example A17, (1R*,2R*)-5′-Methoxy-2-(3-(6-(4-methylpiperazin-1-yl)pyridin-3-yl)-1H-indazol-6-yl)spiro[cyclopropane-1,3′-indolin]-2′-one], the values for the IC50 on human PLK4 and on Aurora B were less than 100 nM and 100 to 1000 nM, respectively.
Take `CN1CCN(c2ccc(-c3n[nH]c4cc([C@@H]5C[C@@]56C(=O)Nc5ccc(Br)cc56)ccc34)cn2)CC1` (relative stereo) [Example A19, (1R*,2S*)-5′-bromo-2-(3-(6-(4-methylpiperazin-1-yl)pyridin-3-yl)-1H-indazol-6-yl)spiro[cyclopropane-1,3′-indolin]-2′-one]: the IC50 at human PLK4 (read-out: IC50 Ranges PLK4) and at Aurora B was less than 100 nM each time.
`O=C1Nc2ccc(F)cc2[C@]12C[C@H]2c1ccc2c(I)n[nH]c2c1` (relative stereo) [Example A40, (1R*,2S*)-5′-fluoro-2-(3-iodo-1H-indazol-6-yl)spiro[cyclopropane-1,3′-indolin]-2′-one]: the 50% inhibitory concentration (IC50) at human PLK4 (read-out: IC50 Ranges PLK4) and at Aurora B was 100 to 1000 nM each time.
Take `COc1ccc2c(c1)[C@]1(C[C@H]1c1ccc3c(-c4ccc(N5CCN(C)CC5)cc4)n[nH]c3c1)C(=O)N2C` (relative stereo) [Example A100, (1R*,2S*)-5′-methoxy-1′-methyl-2-(3-(4-(4-methylpiperazin-1-yl)phenyl)-1H-indazol-6-yl)spiro[cyclopropane-1,3′-indolin]-2′-one 2,2,2-trifluoroacetate]: the IC50 at human PLK4 (read-out: IC50 Ranges PLK4) and on Aurora B was less than 100 nM throughout.
Regarding `COc1ccc2c(c1)[C@]1(C[C@H]1c1ccc3c(-c4ccc(N5CCC(O)CC5)cc4)n[nH]c3c1)C(=O)N2` (relative stereo) [Example A118, (1R*,2S*)-2-(3-(4-(4-hydroxypiperidin-1-yl)phenyl)-1H-indazol-6-yl)-5′-methoxyspiro[cyclopropane-1,3′-indolin]-2′-one 2,2,2-trifluoroacetate], the IC50 at human PLK4 (read-out: IC50 Ranges PLK4) was less than 100 nM.
Take `COc1ccc2c(c1)[C@]1(C[C@H]1c1ccc3c(-c4ccc(N5CCC(N(C)C)CC5)cc4)n[nH]c3c1)C(=O)N2` (relative stereo) [Example A119, (1R*,2S*)-2-(3-(4-(4-(dimethylamino)piperidin-1-yl)phenyl)-1H-indazol-6-yl)-5′-methoxy spiro[cyclopropane-1,3′-indolin]-2′-one 2,2,2-trifluoroacetate]: the IC50 on human PLK4 (read-out: IC50 Ranges PLK4) and on Aurora B was less than 100 nM each time.
As for `COc1ccc2c(c1)[C@]1(C[C@H]1c1ccc3c(C#Cc4ccc(C=O)cc4)n[nH]c3c1)C(=O)N2` (relative stereo) [Example A137, 4-((6-((1R*,2S*)-5′-methoxy-2′-oxospiro[cyclopropane-1,3′-indoline]-2-yl)-1H-indazol-3-yl)ethynyl)benzaldehyde], the IC50 at human PLK4 (read-out: IC50 Ranges PLK4) and on Aurora B was less than 100 nM throughout.
As to `COc1ccc2c(c1)[C@]1(C[C@H]1c1ccc3c(C#Cc4ccc(CN5CCOCC5)cc4)n[nH]c3c1)C(=O)N2` (relative stereo) [Example A138, (1R*,2S*)-5′-methoxy-2-(3-((4-(morpholinomethyl)phenyl)ethynyl)-1H-indazol-6-yl)spiro[cyclopropane-1,3′-indolin]-2′-one 2,2,2-trifluoroacetate], the concentration for half-maximal inhibition (IC50) on human PLK4 (read-out: IC50 Ranges PLK4) and on Aurora B was less than 100 nM in each case.
Regarding `COc1ccc2c(c1)[C@]1(C[C@H]1c1ccc3c(-c4ccc(CN5CCOCC5)cc4)n[nH]c3c1)C(=O)N2` (relative stereo) [Example A139, (1R*,2S*)-5′-methoxy-2-(3-(4-(morpholinomethyl)phenyl)-1H-indazol-6-yl)spiro[cyclopropane-1,3′-indolin]-2′-one 2,2,2-trifluoroacetate], the IC50 on human PLK4 (read-out: IC50 Ranges PLK4) and at Aurora B was less than 100 nM throughout.
Consider `COc1ccc2c(c1)[C@]1(C[C@H]1c1ccc3c(-c4ccc(CN5CCN(C)CC5)cc4)n[nH]c3c1)C(=O)N2` (relative stereo) [Example A140, (1R*,2S*)-5′-methoxy-2-(3-(4-((4-methylpiperazin-1-yl)methyl)phenyl)-1H-indazol-6-yl)spiro[cyclopropane-1,3′-indolin]-2′-one bis-2,2,2-trifluoro acetate], for which the half-inhibitory concentration (IC50) at human PLK4 (read-out: IC50 Ranges PLK4) and at Aurora B was less than 100 nM in each case.
Regarding `COc1ccc2c(c1)[C@]1(C[C@H]1c1ccc3c(C#Cc4ccc(CN5CCN(C)CC5)cc4)n[nH]c3c1)C(=O)N2` (relative stereo) [Example A145, (1R*,2S*)-5′-methoxy-2-(3-((4-((4-methylpiperazin-1-yl)methyl)phenyl)ethynyl)-1H-indazol-6-yl)spiro[cyclopropane-1,3′-indolin]-2′-one bis(2,2,2-trifluoroacetate)], the IC50 at human PLK4 (read-out: IC50 Ranges PLK4) was less than 100 nM; at Aurora B it was 100 to 1000 nM.
As to `O=C1Nc2ccccc2[C@]12C[C@H]2c1ccc2c(-c3cccc(CN4CCOCC4)c3)n[nH]c2c1` (relative stereo) [Example A153, (1R*,2S*)-2-(3-(3-(morpholinomethyl)phenyl)-1H-indazol-6-yl)spiro [cyclopropane-1,3′-indolin]-2′-one 2,2,2-trifluoroacetate], the IC50 on human PLK4 (read-out: IC50 Ranges PLK4) lay within 100 to 1000 nM.
For the molecule `CN1CCN(Cc2ccc(-c3n[nH]c4cc([C@@H]5C[C@@]56C(=O)Nc5ccccc56)ccc34)cc2)CC1` (relative stereo) [Example A155, (1R*,2S*)-2-(3-(4-((4-methylpiperazin-1-yl)methyl)phenyl)-1H-indazol-6-yl)spiro[cyclopropane-1,3′-indolin]-2′-one bis-2,2,2-trifluoroacetate], the values for the IC50 on human PLK4 (read-out: IC50 Ranges PLK4) and at Aurora B were less than 100 nM and 100 to 1000 nM, respectively.
As for `CN1CCN(C(=O)c2ccc(-c3n[nH]c4cc([C@@H]5C[C@@]56C(=O)Nc5ccccc56)ccc34)cc2)CC1` (relative stereo) [Example A156, (1R*,2S*)-2-(3-(4-(4-methylpiperazine-1-carbonyl)phenyl)-1H-indazol-6-yl)spiro[cyclopropane-1,3′-indolin]-2′-one 2,2,2-trifluoroacetate], the figures for the IC50 at human PLK4 (read-out: IC50 Ranges PLK4) and at Aurora B were less than 100 nM and 100 to 1000 nM, respectively.
With `CN(C)Cc1cccc(/C=C/c2n[nH]c3cc([C@@H]4C[C@@]45C(=O)Nc4ccccc45)ccc23)c1` (relative stereo) [Example A162, (1R*,2S*)-(E)-2-(3-(3-((dimethylamino)methyl)styryl)-1H-indazol-6-yl) spiro[cyclopropane-1,3′-indolin]-2′-one 2,2,2-trifluoroacetate], the concentration for half-maximal inhibition (IC50) at human PLK4 (read-out: IC50 Ranges PLK4) and on Aurora B was less than 100 nM in each case.
As to `CN1CCN(c2ccc(-c3n[nH]c4cc([C@@H]5C[C@@]56C(=O)Nc5ccc(F)cc56)ccc34)cn2)CC1` (relative stereo) [Example A210, (1R*,2S*)-5′-fluoro-2-(3-(6-(4-methylpiperazine-1-yl)pyridine-3-yl)-1H-indazol-6-yl)-spiro[cyclopropane-1,3′-indolin]-2′-one], at Aurora B, the IC50 is less than 100 nM.
